Data published in paper PMC11576293, “New series of 4,6-diaryl pyrimidines: facile synthesis and antiproliferative activity as dual EGFR/VEGFR-2 inhibitors” (Frontiers in Chemistry, 2024).

What was measured:
Test in all cases: NCI-60 single-dose screen
Type in all cases: cell-based
KM12 = details: Homo sapiens, single dose 10 µM, '-' = no inhibition, read-out: % Growth Inhibition
Outline: (§1)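 NCI DTP single-dose screen; 10 μM compound; 60-line panel, nine cancer types.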

SNB-75 = details: Homo sapiens, single dose 10 µM, '-' = no inhibition, read-out: % Growth Inhibition
Outline: as §1

SK-MEL-2 = details: Homo sapiens, single dose 10 µM, '-' = no inhibition, read-out: % Growth Inhibition
Outline: as §1

NCI/ADR-RES = details: Homo sapiens, single dose 10 µM, '-' = no inhibition, read-out: % Growth Inhibition
Outline: as §1

786-0 = details: Homo sapiens, single dose 10 µM, '-' = no inhibition, read-out: % Growth Inhibition
Outline: as §1

HOP-62 = details: Homo sapiens, single dose 10 µM, '-' = no inhibition, read-out: % Growth Inhibition
Outline: as §1

SN12C = details: Homo sapiens, single dose 10 µM, '-' = no inhibition, read-out: % Growth Inhibition
Outline: as §1

HS 578T = details: Homo sapiens, single dose 10 µM, '-' = no inhibition, read-out: % Growth Inhibition
Outline: as §1

UO-31 = details: Homo sapiens, single dose 10 µM, '-' = no inhibition, read-out: % Growth Inhibition
Outline: as §1

UACC-62 = details: Homo sapiens, single dose 10 µM, '-' = no inhibition, read-out: % Growth Inhibition
Outline: as §1

CCRF-CEM = details: Homo sapiens, single dose 10 µM, '-' = no inhibition, read-out: % Growth Inhibition
Outline: as §1

SK-MEL-28 = details: Homo sapiens, single dose 10 µM, '-' = no inhibition, read-out: % Growth Inhibition
Outline: as §1

EKVX = details: Homo sapiens, single dose 10 µM, '-' = no inhibition, read-out: % Growth Inhibition
Outline: as §1

CAKI-1 = details: Homo sapiens, single dose 10 µM, '-' = no inhibition, read-out: % Growth Inhibition
Outline: as §1

NCI-H522 = details: Homo sapiens, single dose 10 µM, '-' = no inhibition, read-out: % Growth Inhibition
Outline: as §1

SF-295 = details: Homo sapiens, single dose 10 µM, '-' = no inhibition, read-out: % Growth Inhibition
Outline: as §1

HCT-15 = details: Homo sapiens, single dose 10 µM, '-' = no inhibition, read-out: % Growth Inhibition
Outline: as §1

TK-10 = details: Homo sapiens, single dose 10 µM, '-' = no inhibition, read-out: % Growth Inhibition
Outline: as §1

OVCAR-5 = details: Homo sapiens, single dose 10 µM, '-' = no inhibition, read-out: % Growth Inhibition
Outline: as §1

HCT-116 = details: Homo sapiens, single dose 10 µM, '-' = no inhibition, read-out: % Growth Inhibition
Outline: as §1

T-47D = details: Homo sapiens, T47D, single dose 10 µM, '-' = no inhibition, read-out: % Growth Inhibition
Outline: as §1

UACC-257 = details: Homo sapiens, single dose 10 µM, '-' = no inhibition, read-out: % Growth Inhibition
Outline: as §1

IGROV1 = details: Homo sapiens, IGROV-1, single dose 10 µM, '-' = no inhibition, read-out: % Growth Inhibition
Outline: as §1

SW-620 = details: Homo sapiens, single dose 10 µM, '-' = no inhibition, read-out: % Growth Inhibition
Outline: as §1

RXF 393 = details: Homo sapiens, single dose 10 µM, '-' = no inhibition, read-out: % Growth Inhibition
Outline: as §1

MCF7 = details: Homo sapiens, single dose 10 µM, '-' = no inhibition, read-out: % Growth Inhibition
Outline: as §1

HOP-92 = details: Homo sapiens, single dose 10 µM, '-' = no inhibition, read-out: % Growth Inhibition
Outline: as §1

SK-OV-3 = details: Homo sapiens, single dose 10 µM, '-' = no inhibition, read-out: % Growth Inhibition
Outline: as §1

NCI-H460 = details: Homo sapiens, single dose 10 µM, '-' = no inhibition, read-out: % Growth Inhibition
Outline: as §1

A498 = details: Homo sapiens, single dose 10 µM, '-' = no inhibition, read-out: % Growth Inhibition
Outline: as §1

MALME-3M = details: Homo sapiens, single dose 10 µM, '-' = no inhibition, read-out: % Growth Inhibition
Outline: as §1

HCC-2998 = details: Homo sapiens, single dose 10 µM, '-' = no inhibition, read-out: % Growth Inhibition
Outline: as §1

SNB-19 = details: Homo sapiens, single dose 10 µM, '-' = no inhibition, read-out: % Growth Inhibition
Outline: as §1

SF-539 = details: Homo sapiens, single dose 10 µM, '-' = no inhibition, read-out: % Growth Inhibition
Outline: as §1

BT-549 = details: Homo sapiens, single dose 10 µM, '-' = no inhibition, read-out: % Growth Inhibition
Outline: as §1

MDA-MB-435 = details: Homo sapiens, single dose 10 µM, '-' = no inhibition, read-out: % Growth Inhibition
Outline: as §1

M14 = details: Homo sapiens, single dose 10 µM, '-' = no inhibition, read-out: % Growth Inhibition
Outline: as §1

PC-3 = details: Homo sapiens, single dose 10 µM, '-' = no inhibition, read-out: % Growth Inhibition
Outline: as §1

MOLT-4 = details: Homo sapiens, single dose 10 µM, '-' = no inhibition, read-out: % Growth Inhibition
Outline: as §1

MDA-MB-468 = details: Homo sapiens, single dose 10 µM, '-' = no inhibition, read-out: % Growth Inhibition
Outline: as §1

SK-MEL-5 = details: Homo sapiens, single dose 10 µM, '-' = no inhibition, read-out: % Growth Inhibition
Outline: as §1

HT29 = details: Homo sapiens, HT-29, single dose 10 µM, '-' = no inhibition, read-out: % Growth Inhibition
Outline: as §1

ACHN 1 = details: Homo sapiens, single dose 10 µM, '-' = no inhibition, read-out: % Growth Inhibition
Outline: as §1

SF-268 = details: Homo sapiens, single dose 10 µM, '-' = no inhibition, read-out: % Growth Inhibition
Outline: as §1

U251 = details: Homo sapiens, U-251, single dose 10 µM, '-' = no inhibition, read-out: % Growth Inhibition
Outline: as §1

A549/ATCC = details: Homo sapiens, single dose 10 µM, '-' = no inhibition, read-out: % Growth Inhibition
Outline: as §1

OVCAR-3 = details: Homo sapiens, single dose 10 µM, '-' = no inhibition, read-out: % Growth Inhibition
Outline: as §1

RPMI-8226 = details: Homo sapiens, single dose 10 µM, '-' = no inhibition, read-out: % Growth Inhibition
Outline: as §1

Compound: C=CCSc1nc(-c2ccc(Cl)cc2)cc(-c2ccc(OC)c(OC)c2)n1 [Compound 27, 2-(Allylthio)-4-(4-chlorophenyl)-6-(3,4-dimethoxyphenyl)pyrimidine]
- inhibition at 10 µM (KM12): 3.43%
- inhibition at 10 µM (SNB-75): < 0%
- inhibition at 10 µM (SK-MEL-2): 0.52%
- inhibition at 10 µM (NCI/ADR-RES): 21.8%
- inhibition at 10 µM (786-0): 2.53%
- inhibition at 10 µM (HOP-62): < 0%
- inhibition at 10 µM (SN12C): 14.3%
- inhibition at 10 µM (HS 578T): < 0%
- inhibition at 10 µM (UO-31): 22.9%
- inhibition at 10 µM (UACC-62): 26%
- inhibition at 10 µM (CCRF-CEM): 13.1%
- inhibition at 10 µM (SK-MEL-28): < 0%
- inhibition at 10 µM (EKVX): 12.2%
- inhibition at 10 µM (CAKI-1): 13.1%
- inhibition at 10 µM (NCI-H522): 16.4%
- inhibition at 10 µM (SF-295): 3%
- inhibition at 10 µM (HCT-15): 18.8%
- inhibition at 10 µM (TK-10): < 0%
- inhibition at 10 µM (OVCAR-5): < 0%
- inhibition at 10 µM (HCT-116): 21.8%
- inhibition at 10 µM (T-47D): 23.1%
- inhibition at 10 µM (UACC-257): < 0%
- inhibition at 10 µM (IGROV1): < 0%
- inhibition at 10 µM (SW-620): 1.7%
- inhibition at 10 µM (RXF 393): 3.07%
- inhibition at 10 µM (MCF7): 17.9%
- inhibition at 10 µM (HOP-92): 10.6%
- inhibition at 10 µM (SK-OV-3): < 0%
- inhibition at 10 µM (NCI-H460): 6.7%
- inhibition at 10 µM (A498): < 0%
- inhibition at 10 µM (MALME-3M): < 0%
- inhibition at 10 µM (HCC-2998): < 0%
- inhibition at 10 µM (SNB-19): 8.39%
- inhibition at 10 µM (SF-539): < 0%
- inhibition at 10 µM (BT-549): 3.91%
- inhibition at 10 µM (MDA-MB-435): 6.35%
- inhibition at 10 µM (M14): 0.06%
- inhibition at 10 µM (PC-3): 15.7%
- inhibition at 10 µM (MOLT-4): 28.5%
- inhibition at 10 µM (MDA-MB-468): 23.7%
- inhibition at 10 µM (SK-MEL-5): 12.2%
- inhibition at 10 µM (HT29): 22.6%
- inhibition at 10 µM (ACHN 1): 6.5%
- inhibition at 10 µM (SF-268): < 0%
- inhibition at 10 µM (U251): < 0%
- inhibition at 10 µM (A549/ATCC): 12.3%
- inhibition at 10 µM (OVCAR-3): < 0%
- inhibition at 10 µM (RPMI-8226): 14.3%
